Data: patent US20240228572A1 (i2o Therapeutics, Inc., priority 2020, published 2024)
*1 amine or outer side, *2 acyl side, *3 side chain or, on linkers, in order; H or OH if unused. Where a SMILES comes first, the peptide text is derived from it. Bridges are numbered along the chain shown (N, C = ends). Side-chain parts run from the residue outwards. [ ]: non-standard residue; d: D form. The star is where a group is joined. C20 diacid = O=C(O)CCCCCCCCCCCCCCCCCCC(=O)*; γGlu = O=C(O)[C@H](CCC(=O)[*:2])N[*:1]; AEEA = NCCOCCOCC(=O)O; Aib = CC(C)(N)C(=O)O

Key:
[1] = molecular target: T1, human GLP-1 receptor (GLP-1R) (Homo sapiens, UniProt P43220); assay: cAMP accumulation assay, CHO-K1 cells stably expressing human GLP-1R; format: cell-based; details: cAMP accumulation, mean pEC50, Table 10
T1 construct: expressed in transfected cells

[2] = molecular target: T2, human Glucagon receptor (GCGR) (Homo sapiens, UniProt P47871); assay: cAMP accumulation assay, CHO-K1 cells expressing human GCGR; format: cell-based; details: mean pEC50, Table 10
T2 construct: A cDNA fragment encoding the full-length open reading frame of the human GCGR; expressed in transfected cells; host or cells: CHO-K1, pcDNA3.1+, Lipofectamine 2000
Text: In the presence of the non-specific cAMP/cGMP phosphodiesterase inhibitor, 3-isobutyl-1-methylxanthine (IBMX), accumulating cAMP can be measured in vitro using common detection methods. Thus, it is possible to estimate an in vitro potency (pEC50) for peptides activating each of these receptors using fit dose-response curves for cAMP accumulation.
A cDNA fragment encoding the full-length open reading frame of the cynomolgus monkey GLP-1R (Genebank accession #XM_028847603 was cloned into pcDNA3.1+ for expression in CHO-K1 cells. A cDNA fragment encoding the full-length open reading frame of the human GCGR (Genebank accession #NM_000160 was cloned into pcDNA3.1+ for expression in CHO-K1 cells. A cDNA fragment encoding the full-length open reading frame of the rat GCGR (Genebank accession #NM_12091 was cloned into pcDNA3.1+ for expression in CHO-K1 cells. A cDNA fragment encoding the full-length open reading frame of the cynomolgus monkey GCGR (Genebank accession #XM_005585255 was cloned into pcDNA3.1+ for expression in CHO-K1 cells.
On day 1, CHO-K1 cells were plated at 1.5 million cells per T75 flask in 90% F12-K media supplemented with 10% FBS. On day 3 cells were transfected with 40 mcg of each expression plasmid using Lipofectamine 2000 transfection reagent. On day 5, cells were dispensed at 1000 cells per well in white 384-well OptiPlates in 5 mcL of assay buffer consisting of 1×HBSS, 5 mM HEPES, 0.5 mM IBMX, and 0.1% casein.
Peptides were serially diluted 4-fold in assay buffer to final concentrations ranging from 1×10^−9 M to 9.5×10^−16 M. Two assay controls consisting of 50 mcM forskolin (cAMP system maximum) or assay buffer only (cAMP system minimum) were also prepared. Five microliters of each peptide-concentration, or assay control, was added to triplicate wells and incubated for thirty minutes at room temperature. During this incubation step a 4× europium labelled cAMP tracer solution and a 4× Ulight®-anti-cAMP solution (consisting of an anti-cAMP monoclonal antibody labelled with Ulight™ dye) was prepared according to the manufacturer's protocol (PerkinElmer LANCE Ultra cAMP kit). Following this incubation, 5 mcL europium labelled cAMP and 5 mcL Ulight anti-cAMP antibody was added to each well. The plate was covered to prevent evaporation and incubated for 60 minutes at room temperature in the dark. Plates were read on an Envision fluorescent plate reader (PerkinElmer).
Test values were first normalized to the system maximum and system minimum averaged values in Excel using the formula: (test value−system min average)/(system max average -system min average)*100. Normalized test values represent a baseline corrected percentage of the system maximum cAMP response induced by forskolin. Data from up to 3 replicate tests were analyzed for each peptide. Potency values were estimated using GraphPad Prism software (v7.04) by fitting data to a 4-parameter logistic curve model: Y=Bottom+(Top−Bottom)/(1+10^((LogEC50−X))). The Hill slope was constrained to 1.0. EC50 values were converted to pEC50 values using the formula: pEC50=−Log (EC50).

T2 sequence (P47871 26-477): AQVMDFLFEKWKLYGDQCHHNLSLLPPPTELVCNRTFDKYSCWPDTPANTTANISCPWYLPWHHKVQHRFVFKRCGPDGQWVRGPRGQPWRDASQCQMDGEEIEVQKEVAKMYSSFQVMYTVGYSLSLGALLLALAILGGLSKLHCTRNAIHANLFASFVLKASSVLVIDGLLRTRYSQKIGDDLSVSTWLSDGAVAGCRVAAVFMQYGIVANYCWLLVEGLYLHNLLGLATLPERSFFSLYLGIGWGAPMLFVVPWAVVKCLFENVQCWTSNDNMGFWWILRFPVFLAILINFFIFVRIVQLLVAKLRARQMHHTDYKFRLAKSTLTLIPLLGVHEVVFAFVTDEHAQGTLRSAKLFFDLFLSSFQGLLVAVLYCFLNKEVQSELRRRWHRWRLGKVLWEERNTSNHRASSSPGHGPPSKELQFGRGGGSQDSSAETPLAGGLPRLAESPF
T1 sequence (P43220 24-463): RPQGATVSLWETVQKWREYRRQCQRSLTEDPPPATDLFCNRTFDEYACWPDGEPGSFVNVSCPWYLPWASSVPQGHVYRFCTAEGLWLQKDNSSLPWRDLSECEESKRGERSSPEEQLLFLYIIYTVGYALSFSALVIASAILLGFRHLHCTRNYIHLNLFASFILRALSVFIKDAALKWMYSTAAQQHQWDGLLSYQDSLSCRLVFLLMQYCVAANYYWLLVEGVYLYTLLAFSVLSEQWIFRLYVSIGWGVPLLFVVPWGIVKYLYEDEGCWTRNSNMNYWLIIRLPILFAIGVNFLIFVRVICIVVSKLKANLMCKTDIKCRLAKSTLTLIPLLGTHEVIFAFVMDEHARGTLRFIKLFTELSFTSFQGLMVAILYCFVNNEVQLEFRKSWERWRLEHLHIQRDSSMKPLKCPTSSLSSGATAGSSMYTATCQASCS

Row | SMILES | EC50 [1] [nM] | EC50 [2] [nM]
1 | CC(C)C[C@H](NC(=O)[C@H](Cc1ccc(O)cc1)NC(=O)[C@H](CCCCN)NC(=O)[C@H](CO)NC(=O)[C@H](Cc1ccc(O)cc1)NC(=O)[C@H](CC(=O)O)NC(=O)[C@H](CO)NC(=O)[C@@H](NC(=O)[C@H](Cc1ccccc1)NC(=O)[C@@H](NC(=O)CNC(=O)[C@H](Cc1c[nH]cn1)NC(=O)[C@H](CO)NC(=O)[C@@H](N)Cc1ccc(O)cc1)[C@@H](C)O)[C@@H](C)O)C(=O)N[C@@H](CC(=O)O)C(=O)N[C@@H](CCCCNC(=O)CC[C@H](NC(=O)CC[C@H](NC(=O)COCCOCCNC(=O)CCCCCCCCCCCCCCCCCCC(=O)O)C(=O)O)C(=O)O)C(=O)N[C@@H](CCCCN)C(=O)N[C@@H](Cc1ccc(O)cc1)C(=O)N[C@@H](C)C(=O)N[C@@H](CCC(N)=O)C(=O)N[C@@H](CCC(=O)O)C(=O)N[C@@H](Cc1ccccc1)C(=O)NC(C)(C)C(=O)N[C@@H](CCCCN)C(=O)N[C@@H](Cc1c[nH]c2ccccc12)C(=O)N[C@@H](CC(C)C)C(=O)N[C@@H](CCC(=O)O)C(=O)N[C@@H](CC(=O)O)C(=O)N[C@@H](CCC(=O)O)C(=O)N1CCC[C@H]1C(=O)N[C@@H](CO)C(=O)N[C@@H](CO)C(=O)NCC(=O)N[C@@H](C)C(=O)N1CCC[C@H]1C(=O)N1CCC[C@H]1C(=O)N1CCC[C@H]1C(=O)N[C@@H](CO)C(=O)O [Compound A9] (H-YSHGTFTSDYSKYLDK([γGlu-γGlu-AEEA-C20 diacid])KYAQEF[Aib]KWLEDEPSSGAPPPS-OH; N-terminus assumed) | > 1 | 0.0251
2 | CC(C)C[C@H](NC(=O)[C@H](Cc1ccc(O)cc1)NC(=O)[C@H](CCCCN)NC(=O)[C@H](CO)NC(=O)[C@H](Cc1ccc(O)cc1)NC(=O)[C@H](CC(=O)O)NC(=O)[C@H](CO)NC(=O)[C@@H](NC(=O)[C@H](Cc1ccccc1)NC(=O)[C@@H](NC(=O)CNC(=O)[C@H](Cc1c[nH]cn1)NC(=O)[C@H](CO)NC(=O)[C@@H](N)Cc1ccc(O)cc1)[C@@H](C)O)[C@@H](C)O)C(=O)N[C@@H](CC(=O)O)C(=O)N[C@@H](CCCCNC(=O)CC[C@H](NC(=O)CC[C@H](NC(=O)COCCOCCNC(=O)CCCCCCCCCCCCCCCCCCC(=O)O)C(=O)O)C(=O)O)C(=O)N[C@@H](CCCCN)C(=O)N[C@@H](Cc1ccc(O)cc1)C(=O)N[C@@H](C)C(=O)N[C@@H](CCC(N)=O)C(=O)N[C@@H](CCC(=O)O)C(=O)N[C@@H](Cc1ccccc1)C(=O)NC(C)(C)C(=O)N[C@@H](CO)C(=O)N[C@@H](Cc1c[nH]c2ccccc12)C(=O)N[C@@H](CC(C)C)C(=O)N[C@@H](CCC(=O)O)C(=O)N[C@@H](CC(=O)O)C(=O)N[C@@H](CCC(=O)O)C(=O)N1CCC[C@H]1C(=O)N[C@@H](CO)C(=O)N[C@@H](CO)C(=O)NCC(=O)N[C@@H](C)C(=O)N1CCC[C@H]1C(=O)N1CCC[C@H]1C(=O)N1CCC[C@H]1C(=O)N[C@@H](CO)C(=O)O [Compound A10] (H-YSHGTFTSDYSKYLDK([γGlu-γGlu-AEEA-C20 diacid])KYAQEF[Aib]SWLEDEPSSGAPPPS-OH; N-terminus assumed) | > 1 | 0.0398
3 | CC(C)C[C@H](NC(=O)[C@H](Cc1ccc(O)cc1)NC(=O)[C@H](CCCCN)NC(=O)[C@H](CO)NC(=O)[C@H](Cc1ccc(O)cc1)NC(=O)[C@H](CC(=O)O)NC(=O)[C@H](CO)NC(=O)[C@@H](NC(=O)[C@H](Cc1ccccc1)NC(=O)[C@@H](NC(=O)CNC(=O)[C@H](Cc1c[nH]cn1)NC(=O)[C@H](CO)NC(=O)[C@@H](N)Cc1ccc(O)cc1)[C@@H](C)O)[C@@H](C)O)C(=O)N[C@@H](CC(=O)O)C(=O)N[C@@H](CCCCNC(=O)CC[C@H](NC(=O)CC[C@H](NC(=O)COCCOCCNC(=O)CCCCCCCCCCCCCCCCCCC(=O)O)C(=O)O)C(=O)O)C(=O)N[C@@H](CCCCN)C(=O)N[C@@H](Cc1ccc(O)cc1)C(=O)N[C@@H](C)C(=O)N[C@H]1CCCCNC(=O)CC[C@@H](C(=O)N[C@@H](Cc2c[nH]c3ccccc23)C(=O)N[C@@H](CC(C)C)C(=O)N[C@@H](CCC(=O)O)C(=O)N[C@@H](CC(=O)O)C(=O)N[C@@H](CCC(=O)O)C(=O)N2CCC[C@H]2C(=O)N[C@@H](CO)C(=O)N[C@@H](CO)C(=O)NCC(=O)N[C@@H](C)C(=O)N2CCC[C@H]2C(=O)N2CCC[C@H]2C(=O)N2CCC[C@H]2C(=O)N[C@@H](CO)C(=O)O)NC(=O)[C@H](C(C)C)NC(=O)[C@H](Cc2ccccc2)NC(=O)[C@H](CCC(=O)O)NC1=O [Compound A11] (H-YSHGTFTSDYSKYLDK([γGlu-γGlu-AEEA-C20 diacid])KYAKEFVEWLEDEPSSGAPPPS-OH; lactam 20-24) | > 1 | 0.002
4 | CC(C)C[C@H](NC(=O)[C@H](Cc1ccc(O)cc1)NC(=O)[C@H](CCCCN)NC(=O)[C@H](CO)NC(=O)[C@H](Cc1ccc(O)cc1)NC(=O)[C@H](CC(=O)O)NC(=O)[C@H](CO)NC(=O)[C@@H](NC(=O)[C@H](Cc1ccccc1)NC(=O)[C@@H](NC(=O)CNC(=O)[C@H](Cc1c[nH]cn1)NC(=O)[C@H](CO)NC(=O)[C@@H](N)Cc1ccc(O)cc1)[C@@H](C)O)[C@@H](C)O)C(=O)N[C@@H](CC(=O)O)C(=O)N[C@@H](CCCCNC(=O)CC[C@H](NC(=O)CC[C@H](NC(=O)COCCOCCNC(=O)CCCCCCCCCCCCCCCCCCC(=O)O)C(=O)O)C(=O)O)C(=O)N[C@@H](CCCCN)C(=O)N[C@@H](Cc1ccc(O)cc1)C(=O)N[C@@H](C)C(=O)N[C@H]1CCC(=O)NCCCC[C@@H](C(=O)N[C@@H](Cc2c[nH]c3ccccc23)C(=O)N[C@@H](CC(C)C)C(=O)N[C@@H](CCC(=O)O)C(=O)N[C@@H](CC(=O)O)C(=O)N[C@@H](CCC(=O)O)C(=O)N2CCC[C@H]2C(=O)N[C@@H](CO)C(=O)N[C@@H](CO)C(=O)NCC(=O)N[C@@H](C)C(=O)N2CCC[C@H]2C(=O)N2CCC[C@H]2C(=O)N2CCC[C@H]2C(=O)N[C@@H](CO)C(=O)O)NC(=O)[C@H](C(C)C)NC(=O)[C@H](Cc2ccccc2)NC(=O)[C@H](CCC(=O)O)NC1=O [Compound A12] (H-YSHGTFTSDYSKYLDK([γGlu-γGlu-AEEA-C20 diacid])KYAEEFVKWLEDEPSSGAPPPS-OH; lactam 20-24) | > 1 | 0.00158
5 | CC(C)C[C@H](NC(=O)[C@H](Cc1ccc(O)cc1)NC(=O)[C@H](CCCCN)NC(=O)[C@H](CO)NC(=O)[C@H](Cc1ccc(O)cc1)NC(=O)[C@H](CC(=O)O)NC(=O)[C@H](CO)NC(=O)[C@@H](NC(=O)[C@H](Cc1ccccc1)NC(=O)[C@@H](NC(=O)CNC(=O)[C@H](Cc1c[nH]cn1)NC(=O)[C@H](CO)NC(=O)[C@@H](N)Cc1ccc(O)cc1)[C@@H](C)O)[C@@H](C)O)C(=O)N[C@@H](CC(=O)O)C(=O)N[C@@H](CCCCNC(=O)CC[C@H](NC(=O)CC[C@H](NC(=O)CCCCCCCCCCCCCCCCCCC(=O)O)C(=O)O)C(=O)O)C(=O)N[C@@H](CCCCN)C(=O)N[C@@H](Cc1ccc(O)cc1)C(=O)N[C@@H](C)C(=O)N[C@@H](CCC(N)=O)C(=O)N[C@@H](CCC(=O)O)C(=O)N[C@@H](Cc1ccccc1)C(=O)N[C@H](C(=O)NC(C)(C)C(=O)N[C@@H](Cc1c[nH]c2ccccc12)C(=O)N[C@@H](CC(C)C)C(=O)N[C@@H](CCC(=O)O)C(=O)N[C@@H](CC(=O)O)C(=O)N[C@@H](CCC(=O)O)C(=O)N1CCC[C@H]1C(=O)N[C@@H](CO)C(=O)N[C@@H](CO)C(=O)NCC(=O)N[C@@H](C)C(=O)N1CCC[C@H]1C(=O)N1CCC[C@H]1C(=O)N1CCC[C@H]1C(=O)N[C@@H](CO)C(=O)O)C(C)C [Compound A13] (H-YSHGTFTSDYSKYLDK([γGlu-γGlu-C20 diacid])KYAQEFV[Aib]WLEDEPSSGAPPPS-OH) | > 1 | 0.001
